Measured values as given in ChEMBL document CHEMBL1201862, “PubChem BioAssay data set” (2004).
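Exposure lasted 48 hours, with cells grown in 96-well plates and compounds tested at five concentrations. GI50 = concentration required for 50% inhibition of growth.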 The source made the active and inactive calls. Cut-off read from the data, not from the text of the source: active = GI50 up to about 1.1 µM and inactive = higher.

Key:
Test in all cases: DTP human tumour cell line panel, 48 h
786-0 = tested on: 786-0
A549 = tested on: A549
ACHN = tested on: ACHN
BT-549 = tested on: BT-549
COLO 205 = tested on: COLO 205
HCC 2998 = tested on: HCC 2998
HOP-62 = tested on: HOP-62
K562 = tested on: K562
KM12 = tested on: KM12
MDA-MB-231 = tested on: MDA-MB-231
MOLT-4 = tested on: MOLT-4
Malme-3M = tested on: Malme-3M
NCI-H23 = tested on: NCI-H23
NCI-H460 = tested on: NCI-H460
OVCAR-3 = tested on: OVCAR-3
OVCAR-4 = tested on: OVCAR-4
RXF 393 = tested on: RXF 393
SK-OV-3 = tested on: SK-OV-3
SNB-19 = tested on: SNB-19
SR = tested on: SR

Question: What does the source list for O=C(N/N=C/c1ccc(Cl)cc1)c1ccccc1Nc1ccccc1C(=O)N/N=C/c1ccc(Cl)cc1?
Answer: GI50 (786-0): > 100 µM (inactive); GI50 (A549): 88.7 µM (inactive); GI50 (ACHN): > 100 µM (inactive); GI50 (BT-549): > 100 µM (inactive); GI50 (COLO 205): > 100 µM (inactive); GI50 (HCC 2998): > 100 µM (inactive); GI50 (HOP-62): > 100 µM (inactive); GI50 (K562): > 100 µM (inactive); GI50 (KM12): > 100 µM (inactive); GI50 (MDA-MB-231): 91.6 µM (inactive); GI50 (MOLT-4): > 100 µM (inactive); GI50 (Malme-3M): 64.4 µM (inactive); GI50 (NCI-H23): > 100 µM (inactive); GI50 (NCI-H460): > 100 µM (inactive); GI50 (OVCAR-3): > 100 µM (inactive); GI50 (OVCAR-4): > 100 µM (inactive); GI50 (RXF 393): > 100 µM (inactive); GI50 (SK-OV-3): > 100 µM (inactive); GI50 (SNB-19): > 100 µM (inactive); GI50 (SR): > 100 µM (inactive)

Question: Which results are given for Clc1ccc(Cn2cc(/C=N/n3cnnc3)c3ccccc32)cc1?
Answer: GI50 (786-0): 57.9 µM (inactive); GI50 (A549): 41.8 µM (inactive); GI50 (ACHN): 51.1 µM (inactive); GI50 (BT-549): 29.3 µM (inactive); GI50 (COLO 205): 18.5 µM (inactive); GI50 (HCC 2998): 14.4 µM (inactive); GI50 (HOP-62): 74.3 µM (inactive); GI50 (K562): 22.5 µM (inactive); GI50 (KM12): 70.3 µM (inactive); GI50 (MDA-MB-231): 20.4 µM (inactive); GI50 (MOLT-4): 63.8 µM (inactive); GI50 (Malme-3M): 89.3 µM (inactive); GI50 (NCI-H23): 29.3 µM (inactive); GI50 (NCI-H460): 11.1 µM (inactive); GI50 (OVCAR-3): 86.5 µM (inactive); GI50 (OVCAR-4): 33.5 µM (inactive); GI50 (RXF 393): 16.4 µM (inactive); GI50 (SK-OV-3): 42.6 µM (inactive); GI50 (SNB-19): 56 µM (inactive); GI50 (SR): 39.9 µM (inactive)

Question: Which GI50 (786-0) does the source give for COc1cc2c(cc1[N+](=O)[O-])C(=O)C(Br)(Br)CCC2 here?
Answer: 1.26 µM (inactive)

Question: What about the GI50 (A549) of the same molecule?
Answer: 4.37 µM (inactive)

Question: And the GI50 (ACHN)?
Answer: 2.11 µM (inactive)

Question: What about the GI50 (BT-549) of the same molecule?
Answer: 2.12 µM (inactive)

Question: What about the GI50 (COLO 205) of the same molecule?
Answer: 1.91 µM (inactive)

Question: What about the GI50 (HCC 2998) of the same molecule?
Answer: 14 µM (inactive)

Question: What about the GI50 (HOP-62) of the same molecule?
Answer: 3.38 µM (inactive)

Question: What about the GI50 (K562) of the same molecule?
Answer: 1.09 µM (active)

Question: And the GI50 (KM12)?
Answer: 3.78 µM (inactive)

Question: What about the GI50 (MDA-MB-231) of the same molecule?
Answer: 3.05 µM (inactive)

Question: And the GI50 (MOLT-4)?
Answer: 0.354 µM (active)

Question: What about the GI50 (Malme-3M) of the same molecule?
Answer: 2.13 µM (inactive)

Question: And the GI50 (NCI-H23)?
Answer: 2.79 µM (inactive)

Question: What about the GI50 (NCI-H460) of the same molecule?
Answer: 6.65 µM (inactive)

Question: And the GI50 (OVCAR-3)?
Answer: 3.51 µM (inactive)

Question: What about the GI50 (OVCAR-4) of the same molecule?
Answer: 4.62 µM (inactive)

Question: And the GI50 (RXF 393)?
Answer: 1.93 µM (inactive)

Question: What about the GI50 (SK-OV-3) of the same molecule?
Answer: 3.21 µM (inactive)

Question: And the GI50 (SNB-19)?
Answer: 7.01 µM (inactive)

Question: And the GI50 (SR)?
Answer: 0.743 µM (active)
